{"source": "paper PMC6754136", "about": "(PLoS ONE, 2019)", "test_system": "BJ-hTERT cells", "experiment": "cellular GMP levels after inhibitor treatment", "assay_type": "cell-based, human", "conditions": "20 μM inhibitor, 1 hour; mean ± SEM; p<0.001", "description": "For assaying PDE5 inhibitor effects on GMP levels in a cell line, BJ-hTERT cells were plated in 6-well plates (Corning) in the media described above. When cells were 80% confluent, fresh, pre-warmed media with DMSO (untreated controls) or 20 μM sildenafil, 3, or 7 was added and incubated for 1 hour. Maximum DMSO concentration in all samples was 0.2% of the total well volume. Cells were washed once with cold 0.9% NaCl. 800 μL of 80:20 methanol:water spiked with 500 nM isotopically labeled amino acids as internal standards was added while cells were on dry ice. Cells were detached with a cell scraper. Extracts were vortexed for 10 minutes and centrifuged at maximum speed at 4 °C to remove debris. Extracts were dried down in a vacuum dryer and stored at -80 °C. An additional sample was reserved for visual inspection of cell health by confocal light microscopy and for cell counting with a hemocytometer. Three independent assays were conducted in total, with 1–2 replicates per assay. To analyze GMP levels, samples were reconstituted in 50 μL LC-MS grade water and analyzed by HPLC-UV-MS as described in the general procedures and for enzyme inhibition and kinetics assays. The amino acid standards were analyzed in full scan positive mode with mass windows m/z 50–800. GMP peak areas were normalized to the peak area of the internal standard ^13C4, ^15N-threonine or ^13C6, ^15N3-histidine to account for variations in extraction or resuspension volume. The peak areas were then normalized to the average GMP peak area in undrugged controls and multiplied by 100 to obtain the percent GMP."}
{"compound": "COc1ccc(-c2oc3c(CC=C(C)C)c(O)cc(O)c3c(=O)c2OCCCO)cc1", "note": "[Compound 7, 3-O-(3-Hydroxypropyl)-Icaritin]", "values": [{"measurement": "cellular GMP concentration, % of the GMP concentration in untreated control cells", "value": "13 ± 2", "unit": "%"}]}
